Tests used:
BRD4(1)^WT = biological target: T1, BRD4(1)^WT (Homo sapiens, UniProt O60885); test: Fluorescent labeling of purified protein (CuAAC with TAMRA-PEG3-azide, in-gel fluorescence); assay type: binding; settings: 50 μM probe, 10 μM protein, 4 h, 37 °C, then CuAAC 1 h
T1 construct: Characterization of His6-BRD4(1)WT; made in house; host or cells: E. coli BL21 (DE3)
Method: When 28, 29, 30, and 42 were incubated with either purified BRD4(1)^L94C or BRD4(1)^WT and subjected to a copper(I)-catalyzed alkyne–azide click reaction (CuAAC) reaction with the fluorescent TAMRA-PEG3-azide dye, all clickable probes labeled the mutant protein and could be visualized using fluorescence imaging of a gel (Figure 6).
Figure 6 Clickable probes 28, 29, 30, and 42 covalently label BRD4(1)^L94C and undergo a subsequent CuAAC reaction with TAMRA-PEG3 azide to fluorescently label the protein, as shown by in-gel fluorescence imaging. Compounds 28, 29, 30, 41, and 42 (50 μM) were incubated with purified BRD4(1)^L94C or BRD4(1)^WT (10 μM) for 4 h at 37 °C, followed by CuAAC reaction with TAMRA-PEG3 azide for 1 h and separation of components by SDS-PAGE. For all compounds other than 30, only labeling of BRD4(1)^L94C was observed.
50 mM DMSO stock solutions of the compounds were serially diluted, and dispensed into wells (5 μL).
The protein-peptide mixes (7 μL) for each combination were prepared following the specified final assay concentration (Table S19), and dispensed into wells. […]
Assays were performed in 1.5 mL Eppendorf tubes at room temperature, in the dark, and gently shaken, unless otherwise stated. […] Data was analysed and processed using MassLynx. […]
Gels were imaged for fluorescence using Bio-rad molecular imager and then stained for 15 min with […]

[1] = system: BRD4(1,2)^L94C transiently expressed in HEK293T cells; test: In-cell labeling of tandem bromodomain; assay type: cell-based, human
Method: (§1) reaction mix was taken and 8 µL of Lamelli buffer added, and the samples denatured by heating at 95 °C for 10 min. Samples were separated by gel electrophoresis on NuPAGE™ 4–12%, Bis-Tris precast polyacrylamide gels (Thermofisher). Following electrophoresis, gels were stained for 15 min with InstantBlueTM Coomasie® stain (Abcam), destained, and imaged using Bio-rad molecular imager.
(§2) Bio-rad Image Lab 6.1 was used to process the data.
(§3) In-cell target engagement
(§4) In-cell labeling by clickable probes
(§5) Transfected HEK293T cells at ~90% confluency were incubated for 1 h with a DMSO control (0.5% DMSO final concentration) or a click probe (10 µM, 0.5% DMSO final concentration) diluted in Opti- […]
(§6) Cells were then harvested and lysed using the previously described protocol above. The resulting cell lysates were diluted to 2 mg/mL using the previously described protocol above. […]
(§7) Gels were imaged for fluorescence using Bio-rad molecular imager and then stained for 15 min with InstantBlueTM Coomasie® stain (Abcam), destained, and imaged using Bio-rad molecular imager. […]
(§8) Transfected HEK293T cells at ~90% confluency were incubated for 30 min with a DMSO control or varying concentrations of OXFBD04 diluted in Opti-MEM media. […] Cells were then harvested, processed, and analysed using the previously described protocol above. […]

[2] = biological target: BRD4(1,2)^WT transiently expressed in HEK293T cells (Homo sapiens, UniProt O60885); test: In-cell labeling of tandem bromodomain; assay type: cell-based
Method: as §1, §2, §3, §4, §5, §6, §7, §8

| Labeling of purified BRD4(1)^WT, in-gel fluorescence (BRD4(1)^WT) | In-cell covalent engagement with BRD4(1,2)^WT [2] | SMILES | In-cell labeling of BRD4(1,2)^L94C (fluorescent band ∼80 kDa) [1] |
| --- | --- | --- | --- |
| low level |  | C#CCOc1ccc(-c2c(C)noc2NC(=O)C=C)cc1 [Compound 30] |  |
|  | no covalent engagement | C#CCOc1cc(NC(=O)C=C)ccc1N1CCCC1=O [Compound 42] | selectively label |
